These are literature values, as cited in article PMC9318694 (Molecules, 2022).

pKi: −log10 of the molar value. Where a name gives a salt, the structure may show the parent alone.

D2R, sequence (P14416 whole entry): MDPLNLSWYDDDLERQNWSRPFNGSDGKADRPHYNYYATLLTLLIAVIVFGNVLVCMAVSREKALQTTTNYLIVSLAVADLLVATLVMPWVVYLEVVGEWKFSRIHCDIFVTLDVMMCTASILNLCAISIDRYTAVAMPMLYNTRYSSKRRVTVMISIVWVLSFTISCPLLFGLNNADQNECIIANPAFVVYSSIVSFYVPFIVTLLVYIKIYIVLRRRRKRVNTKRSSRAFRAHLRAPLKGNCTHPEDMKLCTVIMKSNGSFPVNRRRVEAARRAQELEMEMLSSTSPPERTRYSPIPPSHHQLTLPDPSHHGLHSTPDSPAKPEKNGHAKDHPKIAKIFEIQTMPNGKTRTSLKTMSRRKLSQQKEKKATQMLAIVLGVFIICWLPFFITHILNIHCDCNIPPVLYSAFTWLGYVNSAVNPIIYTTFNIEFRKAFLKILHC

One data set has as its target D2R (Homo sapiens, UniProt P14416). The following applies: Table S1; data set of actives, radio-ligand binding assays; ref ChEMBL, [50]-[70]; read-out: KI; cited from earlier work.
On to `CN[C@@H]1Cc2cccc3c2n(c(=O)n3CCOCCOCCOCCCCc2ccccc2)C1` [SC45, (R)-5-(methylamino)-1-(2-(2-(2-(4-phenylbutoxy)ethoxy)ethoxy)ethyl)-5,6-dihydro-4H-imidazo[4,5,1-ij]quinolin-2(1H)-one], for which the pKi is 7.46.

In the case of `C#CC1=CC[C@H](N(CCC)CCCCNC(=O)c2cc3ccccc3s2)CC1` [SC15, (R)-N-(4-((4-ethynylcyclohex-3-en-1-yl)(propyl)amino)butyl)benzo[b]thiophene-2-carboxamide], the pKi was 8.51.

As for `CCCCn1cc(CCCOc2ccc(C(=O)NCCCCN(CCC)CCc3ccc(O)c4[nH]c(=O)ccc34)cc2OC)nn1` [SC36, 4-(3-(1-butyl-1H-1,2,3-triazol-4-yl)propoxy)-N-(4-((2-(8-hydroxy-2-oxo-1,2-dihydroquinolin-5-yl)ethyl)(propyl)amino)butyl)-3-methoxybenzamide], the pKi is 7.62.

In the case of `CCCCn1c(=O)n2c3c(cccc31)C[C@@H](NC)C2` [SC39, (R)-1-butyl-5-(methylamino)-5,6-dihydro-4H-imidazo[4,5,1-ij]quinolin-2(1H)-one], the pKi was 7.89.

Regarding `CN(CCCCOc1ccc2c(c1)NC(=O)CC2)[C@@H]1Cc2cccc3[nH]c(=O)n(c23)C1` [SC49, (R)-5-(methyl(4-((2-oxo-1,2,3,4-tetrahydroquinolin-7-yl)oxy)butyl)amino)-5,6-dihydro-4H-imidazo[4,5,1-ij]quinolin-2(1H)-one], the negative logarithm of the Ki (pKi) was 7.40.

For the molecule `CN[C@@H]1Cc2cccc3c2n(c(=O)n3CCCCCCCCCCCCOc2ccc3c(c2)NC(=O)CC3)C1` [SC51, (R)-5-(methylamino)-1-(12-((2-oxo-1,2,3,4-tetrahydroquinolin-7-yl)oxy)dodecyl)-5,6-dihydro-4H-imidazo[4,5,1-ij]quinolin-2(1H)-one], the pKi is 6.55.

With `CCCN(CCC)[C@@H]1Cc2cccc3c2n(c(=O)n3CCC)C1` [SC38, (R)-5-(dipropylamino)-1-propyl-5,6-dihydro-4H-imidazo[4,5,1-ij]quinolin-2(1H)-one], the pKi is 8.59.

In the case of `O=C1NCCc2ccc(OCCCN3CCN(c4cccc(Cl)c4Cl)CC3)cc21` [SC5, 7-(3-(4-(2,3-dichlorophenyl)piperazin-1-yl)propoxy)-3,4-dihydroisoquinolin-1(2H)-one], the pKi was 7.74.

Consider `Oc1ccc2c(c1)O[C@@H](CNCCN1CCN(c3ccc(OCCF)cc3)CC1)CC2` [SC23, (R)-2-(((2-(4-(4-(2-fluoroethoxy)phenyl)piperazin-1-yl)ethyl)amino)methyl)chroman-7-ol], for which the pKi is 8.18.

With `CN[C@@H]1Cc2cccc3c2n(c(=O)n3CCCCOc2ccc3c(c2)NC(=O)CC3)C1` [SC44, (R)-5-(methylamino)-1-(4-((2-oxo-1,2,3,4-tetrahydroquinolin-7-yl)oxy)butyl)-5,6-dihydro-4H-imidazo[4,5,1-ij]quinolin-2(1H)-one], the pKi was 6.47.

In the case of `c1cc2c3c(c[nH]c3c1)CC1CN(CC3CCCCC3)CCN21` (centres unmarked) [SC26, 8-(cyclohexylmethyl)-6,6a,7,8,9,10-hexahydro-4H-pyrazino[1,2-a]pyrrolo[4,3,2-de]quinoline], the pKi is 7.27.

Turning to `C#CC1=CC[C@H](N(CCC)CCCCNC(=O)c2ccc(OCCCc3cnn(CCCC)n3)c(OC)c2)CC1` [SC14, (R)-4-(3-(2-butyl-2H-1,2,3-triazol-4-yl)propoxy)-N-(4-((4-ethynylcyclohex-3-en-1-yl)(propyl)amino)butyl)-3-methoxybenzamide], the pKi is 8.38.

Take `CCCN(CCCCNC(=O)c1ccc(OCCCc2cn(CCCCCCCCn3cc(CCCOc4ccc(C(=O)NCCCCN(CCC)C5Cc6ccccc6C5)cc4OC)nn3)nn2)c(OC)c1)C1Cc2ccccc2C1` [SC2, 4,4'-(((octane-1,8-diylbis(1H-1,2,3-triazole-1,4-diyl))bis(propane-3,1-diyl))bis(oxy))bis(N-(4-((2,3-dihydro-1H-inden-2-yl)(propyl)amino)butyl)-3-methoxybenzamide)]: the pKi was 7.80.

For `CCCN(CCN1CCN(c2nccc3ccccc23)CC1)[C@H]1CCc2nc(N)sc2C1` [SC56, (S)-N6-(2-(4-(isoquinolin-1-yl)piperazin-1-yl)ethyl)-N6-propyl-4,5,6,7-tetrahydrobenzo[d]thiazole-2,6-diamine], the pKi was 6.57.

As for `COc1ccccc1N1CCN(CCCNC(=O)OC(C)(C)C)CC1` [SC30, tert-butyl (3-(4-(2-methoxyphenyl)piperazin-1-yl)propyl)carbamate], the pKi is 7.80.

For the molecule `CN[C@@H]1Cc2cccc3c2n(c(=O)n3CCOCCOCCCCc2ccccc2)C1` [SC50, (R)-5-(methylamino)-1-(2-(2-(4-phenylbutoxy)ethoxy)ethyl)-5,6-dihydro-4H-imidazo[4,5,1-ij]quinolin-2(1H)-one], the pKi is 6.95.

Still in this data set, the particulars now being: Table S2; data set of inactives, radio-ligand binding (RLB) assays; ref ChEMBL, [71]-[92]; read-out: KI; cited from earlier work.
Turning to `CCCN(CCC)[C@@H]1CCn2nccc2C1` [SC97, (5R)-N,N-dipropyl-4,5,6,7-tetrahydropyrazolo[1,5-a]pyridin-5-amine], the pKi is 4.26.

As to `COc1cccc(CCc2ccccc2OCCCCCN2CCN(c3cccc(Cl)c3)CC2)c1` [SC103, 1-(3-chlorophenyl)-4-[5-[2-[2-(3-methoxyphenyl)ethyl]phenoxy]pentyl]piperazine], the pKi was less than 3.00.

On to `OCc1cccn2ncc(CN3CCN(c4ccc(Cl)cc4)CC3)c12` [SC70, [3-[[4-(4-chlorophenyl)piperazin-1-yl]methyl]pyrazolo[1,5-a]pyridin-4-yl]methanol], for which the pKi is 4.10.

Consider `COc1cccc(CCc2ccccc2OCCCCN2CCN(c3ncccn3)CC2)c1` [SC117, 2-[4-[4-[2-[2-(3-methoxyphenyl)ethyl]phenoxy]butyl]piperazin-1-yl]pyrimidine], for which the pKi was 3.07.

For the molecule `FCCOc1ccc(N2CCN(Cc3cnn4ccccc34)CC2)cc1` [SC98, 3-[[4-[4-(2-fluoroethoxy)phenyl]piperazin-1-yl]methyl]pyrazolo[1,5-a]pyridine], the pKi is 4.10.

On to `COc1cccc(CCc2ccccc2OCCCCCN2CCN(c3ncccn3)CC2)c1` [SC118, 2-[4-[5-[2-[2-(3-methoxyphenyl)ethyl]phenoxy]pentyl]piperazin-1-yl]pyrimidine], for which the pKi was less than 3.00.

Regarding `COc1cccc(CCc2ccccc2OCCCCCN2CCN(c3ccccc3OC)CC2)c1` [SC108, 1-(2-methoxyphenyl)-4-[5-[2-[2-(3-methoxyphenyl)ethyl]phenoxy]pentyl]piperazine], the pKi was less than 3.00.

Regarding `OC1CCc2ccc(N=CN3CCc4ccccc4C3)cc21` (centres unmarked) [Compound S68, 6-(3,4-dihydro-1H-isoquinolin-2-ylmethylideneamino)-2,3-dihydro-1H-inden-1-ol], the pKi is less than 3.52.

As for `COc1cccc(CCc2ccccc2OCCN2CCc3cc(OC)c(OC)cc3C2)c1` [SC114, 6,7-dimethoxy-2-[2-[2-[2-(3-methoxyphenyl)ethyl]phenoxy]ethyl]-3,4-dihydro-1H-isoquinoline], the pKi is less than 3.00.

For `CCCNCCCCNC(=O)c1ccc(-c2ccccc2)cc1` [SC99, 4-phenyl-N-[4-(propylamino)butyl]benzamide], the pKi is less than 4.00.

On to `COc1cccc(CCc2ccccc2OCCCN2CCN(c3cccc(C(F)(F)F)c3)CC2)c1` [SC105, 1-[3-[2-[2-(3-methoxyphenyl)ethyl]phenoxy]propyl]-4-[3-(trifluoromethyl)phenyl]piperazine], for which the pKi was 2.85.

In the case of `COc1ccc2[nH]c3c(c2c1)CCN=C3c1cc([N+](=O)[O-])cn1C` [SC65, 6-methoxy-1-(1-methyl-4-nitropyrrol-2-yl)-4,9-dihydro-3H-pyrido[3,4-b]indole], the negative-log Ki (pKi) was 3.70.

As for `COc1cccc(CCc2ccccc2OCCCCN2CCN(C)CC2)c1` [SC116, 1-[4-[2-[2-(3-methoxyphenyl)ethyl]phenoxy]butyl]-4-methylpiperazine], the pKi was less than 3.00.

In the case of `COc1cc2c(cc1OC)CN(C=Nc1ccc3c(c1)C1SCCSC1CC3)CC2` (centres unmarked) [SC64, N-(2,3,4a,5,6,10b-hexahydrobenzo[f][1,4]benzodithiin-9-yl)-1-(6,7-dimethoxy-3,4-dihydro-1H-isoquinolin-2-yl)methanimine], the negative logarithm of the Ki (pKi) was less than 3.52.

Take `Clc1ccc(N2CCN(CCCCNc3noc(-c4ccccc4)n3)CC2)cc1` [SC62, N-[4-[4-(4-chlorophenyl)piperazin-1-yl]butyl]-5-phenyl-1,2,4-oxadiazol-3-amine;hydrochloride]: the pKi was 4.10.

With `COc1cccc(CCc2ccccc2OCCN2CCN(c3ncccn3)CC2)c1` [SC101, 2-[4-[2-[2-[2-(3-methoxyphenyl)ethyl]phenoxy]ethyl]piperazin-1-yl]pyrimidine], the pKi was 3.20.

For `COc1cccc(CCc2ccccc2OCCN2CCN(c3cccc(Cl)c3)CC2)c1` [SC121, 1-(3-chlorophenyl)-4-[2-[2-[2-(3-methoxyphenyl)ethyl]phenoxy]ethyl]piperazine], the pKi was less than 3.00.

As to `COc1cccc(CCc2ccccc2OCCCCCN2CCN(C)CC2)c1` [SC111, 1-[5-[2-[2-(3-methoxyphenyl)ethyl]phenoxy]pentyl]-4-methylpiperazine], the pKi was less than 3.00.

Turning to `COc1cccc(CCc2ccccc2OCCCCN2CCN(c3ccccc3OC)CC2)c1` [SC122, 1-(2-methoxyphenyl)-4-[4-[2-[2-(3-methoxyphenyl)ethyl]phenoxy]butyl]piperazine], the pKi is 4.17.

The same data set, now with this note: read-out: KI; cited from earlier work.
Regarding `COc1cccc(CCc2ccccc2OCCCN2CCc3cc(OC)c(OC)cc3C2)c1` [SC115, 6,7-dimethoxy-2-[3-[2-[2-(3-methoxyphenyl)ethyl]phenoxy]propyl]-3,4-dihydro-1H-isoquinoline], the pKi is less than 3.00.

`Clc1cccc(C2CCN(CCCCOc3ccc4scnc4c3)CC2)c1Cl` [SC6, 5-(4-(4-(2,3-dichlorophenyl)piperidin-1-yl)butoxy)benzo[d]thiazole]: the pKi was 7.38.

Take `CCCN(CCC)[C@@H]1Cc2cccc3c2n(c(=O)n3CCCCNC(=O)c2cc3ccccc3[nH]2)C1` [SC43, (R)-N-(4-(5-(dipropylamino)-2-oxo-5,6-dihydro-4H-imidazo[4,5,1-ij]quinolin-1(2H)-yl)butyl)-1H-indole-2-carboxamide]: the pKi is 7.06.

By pKi is commonly meant the Ki on a negative log10 scale, so that one unit is a factor of ten.
